Reference: patent US6627641B1, “Antimalarial naphthylisoquinoline alkaloids and pharmaceutical compositions and medical uses thereof” (The United States of America as represented by the …, priority 1994, dated 2003)
≈ marks a conversion by molar mass, not a printed value.

Experiments:
[1] = tested on: P. falciparum (NF54 strain, clone A149); assay: In vitro 3H-hypoxanthine incorporation test with P. falciparum NF 54; type: cell-based, Plasmodium falciparum; conditions: NF 54, clone A149; six repeats; max. concentration 50 or 5 μg/ml
Method: Continuous in vitro cultures of asexual erythrocytic stages of P. falciparum (strain NF 54/64, clone A1A9) were maintained following essentially the method of Trager and Jensen (Science, 193, 673-675, 1976) at 37° C. under an atmosphere of 5% CO2, 5% O2, and 90% N2. The host cells were human erythrocytes (A or O Rh+). The culture medium was RPMI 1640 (Gibco), containing HEPES (BDH; 4.57 gL^−1), glucose (Sigma; 1.54 gL^−1), 5% NaHCO3 (Merck; 34.78 mlL^−1), and gentamycin (Merck; 8.70 mlL^−1) supplemented with 10% human plasma (A Rh+). Parasites were subinoculated every 3-4 days with initial conditions of 1% parasitemia and 1% hematocrit.
(§1) In vitro testing with P. falciparum was as follows. Each compound was dissolved in DMSO at a concentration of 20 mg ml^−1. These solutions were further diluted with physiological saline to obtain a stock solution of 500 μg ml^−1. Each test substance was applied in a series of seven, 4-fold dilutions (maximum concentrations 50 or 5 μg ml^−1). Each compound was tested in 6-fold repeats. Chloroquine was tested similarly, as a positive control.
(§2) The test protocol was performed in vitro, based upon the method of Desjardins, et al. (Antimicrobial Agents Chemother., 16, 710-715, 1979). The parasites (200 μl of a suspension with initial parasitemia of 0.5% and hematocrit of 1.5%) were incubated for 24 h in microtitre plates (Falcon MicroTest III) in hypoxanthine-free medium in the presence of 25 μl of test solution. The plates contained a negative control (6 wells with non-parasitized RBC's, no drug) and a positive control (6 wells with parasitized RBC's no drug). Thereafter, 25 μl of ^3H-hypoxanthine solution (Amersham) was added (0.5 μCi well ^−1), and the parasites were incubated for a further period of 18 h. Each well was harvested with a Cell Harvester (Nunc). The filter papers were dried for 2 h at 52° C., and their radioactivity was measured by liquid scintillation counting in Optiscint HiSafe (LKB Pharmacia).
(§3) The mean results, obtained as counts per min (cpm), were expressed as percentages of incorporation or growth inhibition. The sigmoid dose-response curve was then linearized by probit analysis with the aid of software provided by IWONL (Gent), adapted by G. Timperman and used to derive the IC50 values.

P. berghei (Anka) = assay: In vitro 3H-hypoxanthine incorporation test with P. berghei (Anka); type: cell-based, Plasmodium berghei; conditions: Anka strain
Method: as §1, §2, §3
For experiments with P. berghei (Anka strain), the parasites were maintained, and the in vitro tests performed essentially the same as above, except for the following modification. In the case of tests using P. berghei, the parasites were incubated in the same conditions as for P. falciparum (above) except that the incubations were started immediately in the presence of the ^3H-hypoxanthine and for 24 hour total duration (i.e., no delay in the addition of the ^3H-hypoxanthine). As before, the incorporated radioactivity was used as a-measure for parasite growth.

| Molecule | IC50 P. falciparum NF54 strain [1] [µg/mL] | IC50 P. berghei, Anka (P. berghei (Anka)) [µg/mL] |
| --- | --- | --- |
| 6-O-demethyl-8-O-methyl-7-epi-ancistrobrevine C | 10.326 | – |
| 6-deoxy-N-methyl-ancistrocladine | 10.079 | – |
| 7-epi-dioncophylline A | 0.190 | – |
| COc1cccc2c(-c3ccc4c(c3O)C(C)N(C)C(C)C4)c(C)cc(OC)c12 (single isomer, unassigned) [N-methyl-dioncophylline A (atropisomers)] | 17.411 (≈ 44.5 µM) | – |
| COc1c(-c2c(C)cc(OC)c3c(O)cccc23)ccc2c1C(C)NC(C)C2 (stereo not drawn) [8-O-methyl-5′-O-demethyl-7-epi-dioncophylline A] | 1.584 (≈ 4.2 µM) | 4.580 (≈ 12.1 µM) |
| COc1c(C)nc(C)c2c(OC)c(-c3c(C)cc(OC)c4c(OC)cccc34)ccc12 [(±)-dioncophyllacine A] | 17.571 (≈ 42.1 µM) | – |
| COc1cc2c(c(OC)c1-c1ccc(OC)c3c(OC)cc(C)cc13)[C@@H](C)N(C)[C@@H](C)C2 [Ancistrobrevine A] | 19.336 (≈ 44.4 µM) | – |
| COc1cc(O)c(-c2c(C)cc(OC)c3c(OC)cccc23)c2c1[C@H](C)N[C@@H](C)C2 [Hamatine] | 3.338 (≈ 8.19 µM) | 5.565 (≈ 13.7 µM) |
| COc1cc(C)cc2c(-c3c(O)cc(O)c4c3C[C@@H](C)N[C@@H]4C)cc(-c3cc(-c4c(O)cc(O)c5c4C[C@@H](C)N[C@@H]5C)c4cc(C)cc(OC)c4c3O)c(O)c12 [Michellamine A] | 46.957 (≈ 62 µM) | >50 |
| Dioncolactone A | 1.337 | 0.598 |
| Dioncophylleine A | 21.295 | – |
| Michellamine B | 20.185 | >50 |
| N-formyl-O,O-dimethyl-dioncophylline C | >50 | – |
| N-formyl-ancistrocladine | 8.129 | – |
| N-formyl-dioncophylline C | 3.132 | – |
| N-methyl-ancistrocladine | 0.491 | – |
